According to publication PMC13210772, “Dual FLT3/MAPK14 Proteolysis-Targeting Chimera (PROTAC) Induces Potent Acute Myeloid Leukemia Cell Death” (Pharmaceuticals, 2026):

Columns and labels:
Experiment in all cases: NanoBRET CELLinib128
CAMK1D = biological target: T1, CAMK1D (Homo sapiens, UniProt Q8IU85); type: binding; details: 100% no effect, 0% complete tracer displacement, read-out: Tracer bound
T1 construct: Full-length kinase ORF (Promega, Madison, WI, USA) cloned in frame with a NanoLuc-vector was transfected into HEK293T cells; host or cells: HEK293T

BTK = biological target: T2, BTK (Homo sapiens, UniProt Q06187); type: binding; details: 1 µM; 100% no effect, 0% complete tracer displacement
T2 construct: Full-length kinase ORF (Promega, Madison, WI, USA) cloned in frame with a NanoLuc-vector was transfected into HEK293T cells; host or cells: HEK293T
Experimental: (§1) To get an impression about the binding strength of the PROTAC MA191 and the reference inhibitor MA68 to other kinases besides FLT3-ITD the binding on a kinase panel of further 128 representative protein kinases at 1 μM concentration was tested using the NanoBRET^TM cellular target engagement assay (CELLinib128 assay, CELLinib GmbH, Frankfurt, Germany). […] In none of the 128 kinases MA191 was able to displace the tracer (inhibitor) used by more than 50%, Table S1, Supplementary Information).
(§2) The CELLinib128 assay was performed by CELLinib GmbH, Frankfurt (Germany) as described previously. In brief: Full-length kinase ORF (Promega, Madison, WI, USA) cloned in frame with a NanoLuc-vector was transfected into HEK293T cells in Opti-MEM without phenol red (Life Technologies, Carlsbad, CA, USA) at a density of 2 × 10^5 cells/mL using FuGENE HD (Promega, E2312) and proteins were allowed to express for 20 h. For CDKs, where indicated below, an excess of an activator without an NLuc-fusion was cotransfected. […] The system was allowed to equilibrate at 37 °C for 2 h and 5% CO2 prior to BRET measurements. For PKCs, a chemical activator PMA was added in a final concentration of 1 µM was added together with test compounds and tracers (Promega, V1171). To measure BRET, NanoBRET^TM NanoGlo substrate + extracellular NanoLuc inhibitor (Promega, N2160) were added as per the manufacturer’s protocol, and filtered luminescence was measured (450 nm BP filter (donor) and 610 nm LP filter (acceptor)). For the 1-shot test compounds, data were normalized to the tracer control and the background control or control compound plateau and an average and SD were calculated. […] For the control compounds competitive displacement data were normalized to the tracer Ctrl and the background Ctrl and then plotted and fitted using GraphPad Prism 10 software using a normalized 3-parameter curve fit with the following equation: Y = 100/(1 + 10^X−LogIC50).

CHEK2 = biological target: T3, CHEK2 (Homo sapiens, UniProt O96017); type: binding; details: 100% no effect, 0% complete tracer displacement, read-out: Tracer bound
T3 construct: Full-length kinase ORF (Promega, Madison, WI, USA) cloned in frame with a NanoLuc-vector was transfected into HEK293T cells; host or cells: HEK293T
Experimental: as §1, §2

DCLK3 = biological target: T4, DCLK3 (Homo sapiens, UniProt Q9C098); type: binding; details: 100% no effect, 0% complete tracer displacement, read-out: Tracer bound
T4 construct: Full-length kinase ORF (Promega, Madison, WI, USA) cloned in frame with a NanoLuc-vector was transfected into HEK293T cells; host or cells: HEK293T
Experimental: as §1, §2

EPHA6 = biological target: T5, EPHA6 (Homo sapiens, UniProt Q9UF33); type: binding; details: 100% no effect, 0% complete tracer displacement, read-out: Tracer bound
T5 construct: Full-length kinase ORF (Promega, Madison, WI, USA) cloned in frame with a NanoLuc-vector was transfected into HEK293T cells; host or cells: HEK293T
Experimental: as §1, §2

ERN2 = biological target: T6, ERN2 (Homo sapiens, UniProt Q76MJ5); type: binding; details: 100% no effect, 0% complete tracer displacement, read-out: Tracer bound
T6 construct: Full-length kinase ORF (Promega, Madison, WI, USA) cloned in frame with a NanoLuc-vector was transfected into HEK293T cells; host or cells: HEK293T
Experimental: as §1, §2

FGFR1 = biological target: T7, FGFR1 (Homo sapiens, UniProt P11362); type: binding; details: 100% no effect, 0% complete tracer displacement, read-out: Tracer bound
T7 construct: Full-length kinase ORF (Promega, Madison, WI, USA) cloned in frame with a NanoLuc-vector was transfected into HEK293T cells; host or cells: HEK293T
Experimental: as §1, §2

FGFR4 = biological target: T8, FGFR4 (Homo sapiens, UniProt P22455); type: binding; details: 100% no effect, 0% complete tracer displacement, read-out: Tracer bound
T8 construct: Full-length kinase ORF (Promega, Madison, WI, USA) cloned in frame with a NanoLuc-vector was transfected into HEK293T cells; host or cells: HEK293T
Experimental: as §1, §2

JAK2 = biological target: T9, JAK2 (Homo sapiens, UniProt O60674); type: binding; details: 1 µM; 100% no effect, 0% complete tracer displacement
T9 construct: Full-length kinase ORF (Promega, Madison, WI, USA) cloned in frame with a NanoLuc-vector was transfected into HEK293T cells; host or cells: HEK293T
Experimental: as §1, §2

LATS1 = biological target: T10, LATS1 (Homo sapiens, UniProt O95835); type: binding; details: 100% no effect, 0% complete tracer displacement, read-out: Tracer bound
T10 construct: Full-length kinase ORF (Promega, Madison, WI, USA) cloned in frame with a NanoLuc-vector was transfected into HEK293T cells; host or cells: HEK293T
Experimental: as §1, §2

MAP4K1 = biological target: T11, MAP4K1 (Homo sapiens, UniProt Q92918); type: binding; details: 100% no effect, 0% complete tracer displacement, read-out: Tracer bound
T11 construct: Full-length kinase ORF (Promega, Madison, WI, USA) cloned in frame with a NanoLuc-vector was transfected into HEK293T cells; host or cells: HEK293T
Experimental: as §1, §2

MLTK = biological target: T12, MLTK (Homo sapiens, UniProt Q9NYL2); type: binding; details: 100% no effect, 0% complete tracer displacement, read-out: Tracer bound
T12 construct: Full-length kinase ORF (Promega, Madison, WI, USA) cloned in frame with a NanoLuc-vector was transfected into HEK293T cells; host or cells: HEK293T
Experimental: as §1, §2

MUSK = biological target: T13, MUSK (Homo sapiens, UniProt O15146); type: binding; details: 100% no effect, 0% complete tracer displacement, read-out: Tracer bound
T13 construct: Full-length kinase ORF (Promega, Madison, WI, USA) cloned in frame with a NanoLuc-vector was transfected into HEK293T cells; host or cells: HEK293T
Experimental: as §1, §2

PHKG1 = biological target: T14, PHKG1 (Homo sapiens, UniProt Q16816); type: binding; details: 100% no effect, 0% complete tracer displacement, read-out: Tracer bound
T14 construct: Full-length kinase ORF (Promega, Madison, WI, USA) cloned in frame with a NanoLuc-vector was transfected into HEK293T cells; host or cells: HEK293T
Experimental: as §1, §2

PRKAA1 = biological target: T15, PRKAA1 (Homo sapiens, UniProt Q13131); type: binding; details: 100% no effect, 0% complete tracer displacement, read-out: Tracer bound
T15 construct: Full-length kinase ORF (Promega, Madison, WI, USA) cloned in frame with a NanoLuc-vector was transfected into HEK293T cells; host or cells: HEK293T
Experimental: as §1, §2

PRKAA2 = biological target: T16, PRKAA2 (Homo sapiens, UniProt P54646); type: binding; details: 100% no effect, 0% complete tracer displacement, read-out: Tracer bound
T16 construct: Full-length kinase ORF (Promega, Madison, WI, USA) cloned in frame with a NanoLuc-vector was transfected into HEK293T cells; host or cells: HEK293T
Experimental: as §1, §2

RPS6KA1 = biological target: T17, RPS6KA1 (Homo sapiens, UniProt Q15418); type: binding; details: 100% no effect, 0% complete tracer displacement, read-out: Tracer bound
T17 construct: Full-length kinase ORF (Promega, Madison, WI, USA) cloned in frame with a NanoLuc-vector was transfected into HEK293T cells; host or cells: HEK293T
Experimental: as §1, §2

RPS6KA6 = biological target: T18, RPS6KA6 (Homo sapiens, UniProt Q9UK32); type: binding; details: 1 µM; 100% no effect, 0% complete tracer displacement
T18 construct: Full-length kinase ORF (Promega, Madison, WI, USA) cloned in frame with a NanoLuc-vector was transfected into HEK293T cells; host or cells: HEK293T
Experimental: as §1, §2

STK3 = biological target: T19, STK3 (Homo sapiens, UniProt Q13188); type: binding; details: 100% no effect, 0% complete tracer displacement, read-out: Tracer bound
T19 construct: Full-length kinase ORF (Promega, Madison, WI, USA) cloned in frame with a NanoLuc-vector was transfected into HEK293T cells; host or cells: HEK293T
Experimental: as §1, §2

STK38L = biological target: T20, STK38L (Homo sapiens, UniProt Q9Y2H1); type: binding; details: 100% no effect, 0% complete tracer displacement, read-out: Tracer bound
T20 construct: Full-length kinase ORF (Promega, Madison, WI, USA) cloned in frame with a NanoLuc-vector was transfected into HEK293T cells; host or cells: HEK293T
Experimental: as §1, §2

TNK2 = biological target: T21, TNK2 (Homo sapiens, UniProt Q07912); type: binding; details: 100% no effect, 0% complete tracer displacement, read-out: Tracer bound
T21 construct: Full-length kinase ORF (Promega, Madison, WI, USA) cloned in frame with a NanoLuc-vector; host or cells: HEK293T
Experimental: as §1, §2

TYK2 = biological target: T22, TYK2 (Homo sapiens, UniProt P29597); type: binding; details: 1 µM; 100% no effect, 0% complete tracer displacement
T22 construct: Full-length kinase ORF (Promega, Madison, WI, USA) cloned in frame with a NanoLuc-vector; host or cells: HEK293T
Experimental: as §1, §2

WEE2 = biological target: T23, WEE2 (Homo sapiens, UniProt P0C1S8); type: binding; details: 100% no effect, 0% complete tracer displacement, read-out: Tracer bound
T23 construct: Full-length kinase ORF (Promega, Madison, WI, USA) cloned in frame with a NanoLuc-vector; host or cells: HEK293T
Experimental: as §1, §2

FYN = biological target: T24, FYN (Homo sapiens, UniProt P06241); type: binding; details: 100% no effect, 0% complete tracer displacement, read-out: Tracer bound
T24 construct: Full-length kinase ORF (Promega, Madison, WI, USA) cloned in frame with a NanoLuc-vector was transfected into HEK293T cells; host or cells: HEK293T

CLK4 = CLK4 (Homo sapiens, UniProt Q9HAZ1); details: read-out: Tracer bound
CSF1R = CSF1R (Homo sapiens, UniProt P07333); details: read-out: Tracer bound
LTK = LTK (Homo sapiens, UniProt P29376); details: read-out: Tracer bound
PLK2 = PLK2 (Homo sapiens, UniProt Q9NYY3); details: 1 µM; 100% no effect, 0% complete tracer displacement
RON = RON (Homo sapiens, UniProt Q04912); details: read-out: Tracer bound

Chain of CSF1R (P07333 20-972): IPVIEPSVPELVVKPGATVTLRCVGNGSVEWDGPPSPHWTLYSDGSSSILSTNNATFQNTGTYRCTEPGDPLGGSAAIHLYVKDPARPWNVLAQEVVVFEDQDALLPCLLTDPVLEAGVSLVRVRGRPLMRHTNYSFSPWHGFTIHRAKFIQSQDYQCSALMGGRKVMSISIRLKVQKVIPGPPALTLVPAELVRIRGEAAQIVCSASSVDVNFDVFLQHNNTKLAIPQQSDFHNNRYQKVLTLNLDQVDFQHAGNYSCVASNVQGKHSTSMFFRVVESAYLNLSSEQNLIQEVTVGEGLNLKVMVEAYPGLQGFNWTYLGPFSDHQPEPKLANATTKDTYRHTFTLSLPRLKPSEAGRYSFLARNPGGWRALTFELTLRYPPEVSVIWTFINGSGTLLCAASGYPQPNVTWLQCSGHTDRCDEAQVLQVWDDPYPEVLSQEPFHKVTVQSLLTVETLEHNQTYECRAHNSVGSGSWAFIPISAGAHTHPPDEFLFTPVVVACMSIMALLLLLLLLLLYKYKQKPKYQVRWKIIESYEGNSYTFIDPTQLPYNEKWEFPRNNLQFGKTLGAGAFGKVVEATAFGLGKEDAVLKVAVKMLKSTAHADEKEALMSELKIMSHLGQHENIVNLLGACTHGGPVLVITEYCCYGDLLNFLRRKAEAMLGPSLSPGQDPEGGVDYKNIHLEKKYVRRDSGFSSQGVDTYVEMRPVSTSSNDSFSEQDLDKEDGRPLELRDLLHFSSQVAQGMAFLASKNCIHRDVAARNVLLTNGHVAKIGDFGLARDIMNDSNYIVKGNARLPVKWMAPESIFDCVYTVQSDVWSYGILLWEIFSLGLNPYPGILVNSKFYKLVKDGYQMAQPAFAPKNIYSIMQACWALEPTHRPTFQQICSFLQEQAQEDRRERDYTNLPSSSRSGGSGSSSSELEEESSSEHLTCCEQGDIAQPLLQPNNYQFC
T2 sequence (Q06187 whole entry): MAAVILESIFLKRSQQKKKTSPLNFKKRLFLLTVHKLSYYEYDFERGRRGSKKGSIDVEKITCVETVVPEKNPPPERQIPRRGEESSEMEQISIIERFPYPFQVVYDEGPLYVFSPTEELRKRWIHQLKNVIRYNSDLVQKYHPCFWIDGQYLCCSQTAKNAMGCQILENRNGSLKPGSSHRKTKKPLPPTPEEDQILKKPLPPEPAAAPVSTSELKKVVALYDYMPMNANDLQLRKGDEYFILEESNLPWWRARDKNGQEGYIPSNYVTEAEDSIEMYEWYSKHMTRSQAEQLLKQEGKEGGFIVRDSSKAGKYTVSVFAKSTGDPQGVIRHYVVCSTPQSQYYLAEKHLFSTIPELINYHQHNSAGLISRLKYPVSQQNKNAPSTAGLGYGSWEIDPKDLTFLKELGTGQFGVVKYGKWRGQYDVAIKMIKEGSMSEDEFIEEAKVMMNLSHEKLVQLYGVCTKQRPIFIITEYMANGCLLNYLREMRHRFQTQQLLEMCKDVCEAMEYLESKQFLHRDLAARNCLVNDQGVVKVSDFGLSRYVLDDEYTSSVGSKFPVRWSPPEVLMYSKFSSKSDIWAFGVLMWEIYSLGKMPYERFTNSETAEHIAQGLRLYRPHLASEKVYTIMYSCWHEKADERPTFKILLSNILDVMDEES
T8 sequence (P22455 22-802): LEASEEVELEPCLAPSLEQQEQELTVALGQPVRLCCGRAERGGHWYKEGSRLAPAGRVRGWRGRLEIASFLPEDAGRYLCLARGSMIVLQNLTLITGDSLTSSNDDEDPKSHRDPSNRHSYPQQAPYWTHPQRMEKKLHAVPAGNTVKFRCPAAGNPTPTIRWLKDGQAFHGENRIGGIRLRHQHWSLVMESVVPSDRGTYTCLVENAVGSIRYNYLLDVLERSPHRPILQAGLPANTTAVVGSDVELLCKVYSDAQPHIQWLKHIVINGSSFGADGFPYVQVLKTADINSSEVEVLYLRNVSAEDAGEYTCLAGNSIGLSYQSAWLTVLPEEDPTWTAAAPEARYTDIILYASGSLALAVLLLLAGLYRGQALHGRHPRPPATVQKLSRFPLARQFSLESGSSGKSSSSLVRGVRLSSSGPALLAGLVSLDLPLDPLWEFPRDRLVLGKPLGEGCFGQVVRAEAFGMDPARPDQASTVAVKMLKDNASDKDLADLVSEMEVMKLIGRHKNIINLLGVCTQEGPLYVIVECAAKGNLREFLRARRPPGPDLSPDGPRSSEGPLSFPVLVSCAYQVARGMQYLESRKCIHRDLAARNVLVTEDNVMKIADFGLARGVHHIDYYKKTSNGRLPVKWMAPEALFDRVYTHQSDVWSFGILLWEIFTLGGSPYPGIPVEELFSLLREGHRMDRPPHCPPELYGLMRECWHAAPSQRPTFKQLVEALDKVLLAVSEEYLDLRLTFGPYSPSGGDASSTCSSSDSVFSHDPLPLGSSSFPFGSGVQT
T6 sequence (Q76MJ5 35-926): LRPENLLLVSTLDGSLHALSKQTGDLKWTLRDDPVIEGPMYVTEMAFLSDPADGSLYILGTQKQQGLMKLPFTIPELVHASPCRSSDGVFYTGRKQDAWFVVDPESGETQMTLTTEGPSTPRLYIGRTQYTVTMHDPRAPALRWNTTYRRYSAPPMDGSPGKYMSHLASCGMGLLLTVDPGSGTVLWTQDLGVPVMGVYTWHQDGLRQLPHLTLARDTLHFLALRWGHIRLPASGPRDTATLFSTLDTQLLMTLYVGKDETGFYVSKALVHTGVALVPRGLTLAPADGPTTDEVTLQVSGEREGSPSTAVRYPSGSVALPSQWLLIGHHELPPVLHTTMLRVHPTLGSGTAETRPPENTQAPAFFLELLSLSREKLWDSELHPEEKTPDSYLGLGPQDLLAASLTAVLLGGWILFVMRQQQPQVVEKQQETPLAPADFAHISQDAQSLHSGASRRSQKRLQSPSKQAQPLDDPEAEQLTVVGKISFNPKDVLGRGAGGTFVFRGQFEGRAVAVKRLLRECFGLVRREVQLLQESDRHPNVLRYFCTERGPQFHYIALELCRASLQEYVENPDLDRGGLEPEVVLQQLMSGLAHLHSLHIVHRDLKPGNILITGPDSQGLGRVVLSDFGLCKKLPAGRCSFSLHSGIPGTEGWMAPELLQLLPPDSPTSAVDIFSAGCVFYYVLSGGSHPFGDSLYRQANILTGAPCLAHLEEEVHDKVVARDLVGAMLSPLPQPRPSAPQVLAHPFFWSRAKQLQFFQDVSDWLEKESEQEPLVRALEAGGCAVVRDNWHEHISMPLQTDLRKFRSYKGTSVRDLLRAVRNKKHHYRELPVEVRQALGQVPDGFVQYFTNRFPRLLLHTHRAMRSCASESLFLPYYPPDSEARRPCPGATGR
T1 sequence (Q8IU85 whole entry): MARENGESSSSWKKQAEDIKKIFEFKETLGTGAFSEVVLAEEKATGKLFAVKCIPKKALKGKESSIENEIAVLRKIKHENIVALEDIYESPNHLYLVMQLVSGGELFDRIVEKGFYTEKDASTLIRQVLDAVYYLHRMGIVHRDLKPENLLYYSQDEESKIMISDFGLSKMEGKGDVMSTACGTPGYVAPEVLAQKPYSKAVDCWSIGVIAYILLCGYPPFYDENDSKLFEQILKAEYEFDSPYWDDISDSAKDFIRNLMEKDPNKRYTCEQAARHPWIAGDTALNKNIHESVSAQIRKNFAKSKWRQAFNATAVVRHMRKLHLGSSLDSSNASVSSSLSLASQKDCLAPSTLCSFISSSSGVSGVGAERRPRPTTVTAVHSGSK
T11 sequence (Q92918 whole entry): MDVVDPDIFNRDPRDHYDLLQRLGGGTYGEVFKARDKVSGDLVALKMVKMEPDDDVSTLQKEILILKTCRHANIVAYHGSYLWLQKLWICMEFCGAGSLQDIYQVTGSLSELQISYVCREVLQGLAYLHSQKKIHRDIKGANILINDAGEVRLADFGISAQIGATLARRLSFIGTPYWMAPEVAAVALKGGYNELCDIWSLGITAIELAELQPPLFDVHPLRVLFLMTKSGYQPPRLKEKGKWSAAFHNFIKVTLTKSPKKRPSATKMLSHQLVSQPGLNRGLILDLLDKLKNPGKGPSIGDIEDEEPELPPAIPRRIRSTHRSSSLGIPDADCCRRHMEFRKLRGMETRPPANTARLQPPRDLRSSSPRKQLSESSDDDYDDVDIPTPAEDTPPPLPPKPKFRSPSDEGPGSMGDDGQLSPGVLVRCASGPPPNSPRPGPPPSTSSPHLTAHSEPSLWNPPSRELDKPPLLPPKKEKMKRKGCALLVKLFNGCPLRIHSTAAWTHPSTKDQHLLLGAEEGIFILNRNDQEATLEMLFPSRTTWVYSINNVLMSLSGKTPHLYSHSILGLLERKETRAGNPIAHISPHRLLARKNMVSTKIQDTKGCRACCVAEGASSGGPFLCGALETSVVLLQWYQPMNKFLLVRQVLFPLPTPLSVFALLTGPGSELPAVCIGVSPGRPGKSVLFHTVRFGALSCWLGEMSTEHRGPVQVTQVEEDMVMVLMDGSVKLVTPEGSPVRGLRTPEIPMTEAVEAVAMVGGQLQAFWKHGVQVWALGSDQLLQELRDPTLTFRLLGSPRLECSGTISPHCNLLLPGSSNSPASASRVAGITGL
T15 sequence (Q13131 whole entry): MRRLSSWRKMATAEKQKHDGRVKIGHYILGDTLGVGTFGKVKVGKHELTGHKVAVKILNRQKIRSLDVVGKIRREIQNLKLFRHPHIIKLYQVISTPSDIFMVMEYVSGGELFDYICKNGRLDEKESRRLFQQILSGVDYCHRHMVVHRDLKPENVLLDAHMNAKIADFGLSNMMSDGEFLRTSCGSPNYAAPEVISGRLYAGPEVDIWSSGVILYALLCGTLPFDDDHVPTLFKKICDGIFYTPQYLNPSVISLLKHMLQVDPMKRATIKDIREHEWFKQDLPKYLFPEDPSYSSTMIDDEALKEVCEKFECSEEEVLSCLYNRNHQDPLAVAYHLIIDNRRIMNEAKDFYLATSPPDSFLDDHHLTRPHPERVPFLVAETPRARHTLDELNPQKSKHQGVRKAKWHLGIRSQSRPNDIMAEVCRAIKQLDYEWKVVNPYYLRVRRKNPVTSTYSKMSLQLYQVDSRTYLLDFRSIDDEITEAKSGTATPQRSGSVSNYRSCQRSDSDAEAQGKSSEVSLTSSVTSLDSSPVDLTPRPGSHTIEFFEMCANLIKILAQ

| remaining activity at 1 µM (CAMK1D) | Tracer bound (BTK) | remaining activity at 1 µM (CHEK2) | remaining activity at 1 µM (DCLK3) | remaining activity at 1 µM (EPHA6) | remaining activity at 1 µM (ERN2) | remaining activity at 1 µM (FGFR1) | remaining activity at 1 µM (FGFR4) | Tracer bound (JAK2) | remaining activity at 1 µM (LATS1) | remaining activity at 1 µM (MAP4K1) | remaining activity at 1 µM (MLTK) | remaining activity at 1 µM (MUSK) | remaining activity at 1 µM (PHKG1) | remaining activity at 1 µM (PRKAA1) | remaining activity at 1 µM (PRKAA2) | remaining activity at 1 µM (RPS6KA1) | Tracer bound (RPS6KA6) | remaining activity at 1 µM (STK3) | remaining activity at 1 µM (STK38L) | SMILES | other results |
| --- | --- | --- | --- | --- | --- | --- | --- | --- | --- | --- | --- | --- | --- | --- | --- | --- | --- | --- | --- | --- | --- |
| 102% | 120.0% | 119% | 113% | 23.6% | 120% | 69.2% | 86.5% | 110.6% | 106% | 101% | 15.3% | 6% | 87.3% | 114% | 109% | 108% | 113.5% | 99.3% | 90% | CNC(=O)c1cc(Oc2ccc(NC(=O)Nc3cc(C(C)(C)C)on3)cc2)ccn1 [MA68, reference compound] | remaining activity at 1 µM (TNK2): 116%; Tracer bound (TYK2): 103.2%; remaining activity at 1 µM (WEE2): 102%; remaining activity at 1 µM (FYN): 114%; remaining activity at 1 µM (CLK4): 93.8%; remaining activity at 1 µM (CSF1R): 27.1%; remaining activity at 1 µM (LTK): 102%; Tracer bound (PLK2): 98.1%; remaining activity at 1 µM (RON): 100% |
| 85.4% | 120.0% | 111% | 102% | 82.5% | 116% | 103% | 92.7% | 105.7% | 97.8% | 105% | 54.8% | 66% | 93.5% | 110% | 119% | 110% | 107.5% | 105% | 90% | Cc1ncsc1-c1ccc([C@H](C)NC(=O)[C@@H]2C[C@@H](O)CN2C(=O)[C@@H](NC(=O)[C@H]2CC[C@H](C(=O)N3CCN(CCNC(=O)c4cc(Oc5ccc(NC(=O)Nc6cc(C(C)(C)C)on6)cc5)ccn4)CC3)CC2)C(C)(C)C)cc1 [MA191, 4-(4-(3-(5-(tert-Butyl)isoxazol-3-yl)ureido)phenoxy)-N-(2-(4-(trans-4-(((S)-1-((2S,4R)-4-hydroxy-2-(((S)-1-(4-(4-methylthiazol-5-yl)phenyl)ethyl)carbamoyl)pyrrolidin-1-yl)-3,3-dimethyl-1-oxobutan-2-yl)carbamoyl)cyclohexanecarbonyl)piperazin-1-yl)ethyl)picolinamide] | remaining activity at 1 µM (TNK2): 118%; Tracer bound (TYK2): 105.6%; remaining activity at 1 µM (WEE2): 99.3%; remaining activity at 1 µM (FYN): 120%; remaining activity at 1 µM (CLK4): 100%; remaining activity at 1 µM (CSF1R): 108%; remaining activity at 1 µM (LTK): 101%; Tracer bound (PLK2): 107.6%; remaining activity at 1 µM (RON): 98.5% |
